This note sets out measurements from patent US10336761B2, “TGFβ receptor antagonist” (BRISTOL-MYERS SQUIBB COMPANY, priority 2015, dated 2019).

SMILES strings stand for the structures.

The target of the assay is HIS-TGFβR1 T204D (Homo sapiens (Human), UniProt P36897, T204D). As to the kind of experiment: HTRF probe-displacement assay, HIS-TGFβR1 T204D. The assay is classed as binding. Conditions: 1 hour at room temperature. (In general: In TR-FRET formats the signal depends on donor and acceptor labels being close together.)
HIS-TGFβR1 T204D, sequence (P36897 34-503 T204D): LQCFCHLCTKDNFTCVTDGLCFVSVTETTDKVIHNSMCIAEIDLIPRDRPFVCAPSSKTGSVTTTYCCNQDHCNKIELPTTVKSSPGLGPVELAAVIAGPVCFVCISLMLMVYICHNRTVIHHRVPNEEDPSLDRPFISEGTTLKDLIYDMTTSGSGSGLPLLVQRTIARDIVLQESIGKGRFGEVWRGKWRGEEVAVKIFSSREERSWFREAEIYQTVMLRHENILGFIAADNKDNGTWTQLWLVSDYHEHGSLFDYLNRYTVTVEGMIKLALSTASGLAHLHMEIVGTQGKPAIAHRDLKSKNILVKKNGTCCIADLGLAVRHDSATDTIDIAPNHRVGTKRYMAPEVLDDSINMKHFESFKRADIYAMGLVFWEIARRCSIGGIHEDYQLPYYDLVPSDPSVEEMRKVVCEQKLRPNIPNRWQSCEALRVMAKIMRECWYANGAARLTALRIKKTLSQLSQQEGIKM
Usually IC50 stands for the concentration needed to halve the response being measured. The compound `O[C@@H](CNCc1ccn2nc(-c3ccccn3)nc(Nc3ccncc3F)c12)c1ccccc1` [Example 310, (1R)-2-[({4-[(3-fluoropyridin-4-yl)amino]-2-(pyridin-2-yl)pyrrolo[2,1-f][1,2,4]triazin-5-yl}methyl)amino]-1-phenylethan-1-ol] yielded an IC50 of 4 nM. For `Fc1cnccc1Nc1nc(-c2ccccn2)nn2ccc(CNC3CNC3)c12` [Example 311, N-(5-{[(azetidin-3-yl)amino]methyl}-2-(pyridin-2-yl)pyrrolo[2,1-f][1,2,4]triazin-4-yl)-3-fluoropyridin-4-amine] the value was 13 nM; for `COC(=O)Nc1cc(Nc2nc(-c3cccc(C(F)(F)F)n3)nn3cccc23)ccn1` [Example 312, Methyl N-[4-({2-[6-(trifluoromethyl)pyridin-2-yl]pyrrolo[2,1-f][1,2,4]triazin-4-yl}amino)pyridin-2-yl]carbamate], 0.87 nM. Take `CCC(=O)Nc1cc(Nc2nc(-c3cccc(C(F)(F)F)n3)nn3cccc23)ccn1` [Example 313, N-[4-({2-[6-(trifluoromethyl)pyridin-2-yl]pyrrolo[2,1-f][1,2,4]triazin-4-yl}amino)pyridin-2-yl]propanamide]: the IC50 was 0.89 nM.

`CC(C)CC(=O)Nc1cc(Nc2nc(-c3cccc(C(F)(F)F)n3)nn3cccc23)ccn1` [Example 314, 3-methyl-N-[4-({2-[6-(trifluoromethyl)pyridin-2-yl]pyrrolo[2,1-f][1,2,4]triazin-4-yl}amino)pyridin-2-yl]butanamide] gave an IC50 of 5.6 nM.

`NC(=O)c1cc(Nc2nc(-c3cccc(C(F)(F)F)n3)nn3cccc23)ccn1` [Example 315, 4-({2-[6-(trifluoromethyl)pyridin-2-yl]pyrrolo[2,1-f][1,2,4]triazin-4-yl}amino)pyridine-2-carboxamide] yielded an IC50 of 890 nM.

For `CN1CCN(CC(=O)Nc2cc(Nc3nc(-c4cccc(C(F)(F)F)n4)nn4cccc34)ccn2)CC1` [Example 316, 2-(4-methylpiperazin-1-yl)-N-[4-({2-[6-(trifluoromethyl)pyridin-2-yl]pyrrolo[2,1-f][1,2,4]triazin-4-yl}amino)pyridin-2-yl]acetamide], the IC50 stood at 1 nM.

`Fc1ccc(-c2nc(Nc3cc(Cl)ncc3F)c3cccn3n2)nc1` [Example 317, 2-chloro-5-fluoro-N-[2-(5-fluoropyridin-2-yl)pyrrolo[2,1-f][1,2,4]triazin-4-yl]pyridin-4-amine] yielded an IC50 of 3000 nM. In turn, `CS(=O)(=O)Nc1cc(Nc2nc(-c3cccc(C(F)(F)F)n3)nn3cccc23)ccn1` [Example 318, N-[4-({2-[6-(trifluoromethyl)pyridin-2-yl]pyrrolo[2,1-f][1,2,4]triazin-4-yl}amino)pyridin-2-yl]methanesulfonamide] registered an IC50 of 4000 nM. The IC50 values of the last two compounds are within 1.5-fold of each other.

On to `CC(=O)N1CCN(CC(=O)Nc2cc(Nc3nc(-c4cccc(C(F)(F)F)n4)nn4cccc34)ccn2)CC1` [Example 320, 2-(4-acetylpiperazin-1-yl)-N-[4-({2-[6-(trifluoromethyl)pyridin-2-yl]pyrrolo[2,1-f][1,2,4]triazin-4-yl}amino)pyridin-2-yl]acetamide], for which the IC50 is 0.85 nM. Compared with the last compound, the IC50 is about 4700-fold lower. `CC(C)(C)CC(=O)Nc1cc(Nc2nc(-c3cccc(C(F)(F)F)n3)nn3cccc23)ccn1` [Example 321, 3,3-dimethyl-N-[4-({2-[6-(trifluoromethyl)pyridin-2-yl]pyrrolo[2,1-f][1,2,4]triazin-4-yl}amino)pyridin-2-yl]butanamide] showed an IC50 of 91 nM. For `O=C(CN1CCNCC1)Nc1cc(Nc2nc(-c3cccc(C(F)(F)F)n3)nn3cccc23)ccn1` [Example 322, 2-(piperazin-1-yl)-N-[4-({2-[6-(trifluoromethyl)pyridin-2-yl]pyrrolo[2,1-f][1,2,4]triazin-4-yl}amino)pyridin-2-yl]acetamide] the value was 1.3 nM; for `CC(=O)Nc1cc(Nc2nc(-c3ccc(F)cn3)nn3cccc23)c(F)cn1` [Example 323, N-(5-fluoro-4-{[2-(5-fluoropyridin-2-yl)pyrrolo[2,1-f][1,2,4]triazin-4-yl]amino}pyridin-2-yl)acetamide], 16 nM.
